Measurements reported in patent EP2257297B1, “COMPOUNDS FOR USE IN THE TREATMENT OF ACNE, SEBORRHOEA AND SEBHORROEIC DERMATITIS, OR FOR REDUCING SEBUM SECRETION” (priority 2008, dated 2009).

These molecules were tested against T1, human MC5R (Homo sapiens, UniProt P33032) (assay: Human MC5R radioligand binding assay ([125I] NDP-MSH displacement, hMC5R membranes)). Details: hMC5R assay as in Example 102; compounds tested as trifluoroacetate or hydrochloride salts, or as free base.
T1 construct: purchased Perkin Elmer RBXMC5M400UA
T1 sequence (P33032 whole entry): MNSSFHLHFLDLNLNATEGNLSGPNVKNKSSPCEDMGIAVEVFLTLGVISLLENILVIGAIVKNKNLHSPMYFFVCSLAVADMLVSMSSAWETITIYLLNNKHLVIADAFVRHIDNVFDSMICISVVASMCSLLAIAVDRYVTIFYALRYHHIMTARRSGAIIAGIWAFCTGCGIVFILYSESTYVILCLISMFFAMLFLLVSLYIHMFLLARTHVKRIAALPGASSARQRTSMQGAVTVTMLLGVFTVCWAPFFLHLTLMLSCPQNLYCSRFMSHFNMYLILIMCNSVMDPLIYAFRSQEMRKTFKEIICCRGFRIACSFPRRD
Outline: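 Bound ligand collected by filtration on PEI-soaked GF/A filters and counted. Data fitted to a single-site competition model with fixed Hill coefficient to give EC50.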

`N=C(N)NCCC[C@@H]1N[C@H](CNC(=O)[C@@H]2COc3ccccc3O2)CCN(CC(c2ccccc2)c2ccccc2)C1=O` [Compound 165, (S)-N-(((3S,5S)-1-(2,2-diphenylethyl)-3-(3-guanidinopropyl)-2-oxo-1,4-diazepan-5-yl)methyl)-2,3-dihydrobenzo[b][1,4]dioxine-2-carboxamide] and `N=C(N)NCCC[C@@H]1N[C@H](CNC(=O)c2ccc(Br)cc2)CCN(CC(c2ccccc2)c2ccccc2)C1=O` [Compound 164, 4-bromo-N-(((3S,5S)-1-(2,2-diphenylethyl)-3-(3-guanidinopropyl)-2-oxo-1,4-diazepan-5-yl)methyl)benzamide] cannot be ordered by IC50: less than 1000 nM for the first, less than 1000 nM for the second.

`N=C(N)NCCC[C@@H]1N[C@H](CNC(=O)Cc2ccc(Cl)c(Cl)c2)CCN(CC(c2ccccc2)c2ccccc2)C1=O` [Compound 157, 2-(3,4-dichlorophenyl)-N-(((3S,5S)-1-(2,2-diphenylethyl)-3-(3-guanidinopropyl)-2-oxo-1,4-diazepan-5-yl)methyl)acetamide] and `N=C(N)NCCC[C@@H]1N[C@H](CNC(=O)c2ccc3[nH]nnc3c2)CCN(CC(c2ccccc2)c2ccccc2)C1=O` [Compound 150, N-(((3S,5S)-1-(2,2-diphenylethyl)-3-(3-guanidinopropyl)-2-oxo-1,4-diazepan-5-yl)methyl)-1H-benzo[d][1,2,3]triazole-5-carboxamide] cannot be ordered by IC50: less than 10000 nM for the first, less than 10000 nM for the second.

`NCC[C@@H]1N[C@H](CCNC(=O)c2ccccc2)CCN(CC(c2ccccc2)c2ccccc2)C1=O` [Compound 308, N-(2-((3S,5R)-1-(2,2-diphenylethyl)-2-oxo-3-(2-aminoethyl)-1,4-diazepan-5-yl)ethyl)benzamide] and `NCC[C@@H]1N[C@H](CCNC(=O)c2ccc(Cl)c(Cl)c2)CCN(CC(c2ccccc2)c2ccccc2)C1=O` [Compound 309, 3,4-dichloro-N-(2-((3S,5R)-1-(2,2-diphenylethyl)-2-oxo-3-(2-aminoethyl)-1,4-diazepan-5-yl)ethyl)benzamide] cannot be ordered by IC50: less than 10000 nM for the first, less than 1000 nM for the second.

`COc1c(C(=O)NC[C@@H]2CCN(CC(c3ccccc3)c3ccccc3)C(=O)[C@H](CCCNC(=N)N)N2)ccc2ccccc12` [Compound 156, N-(((3S,5S)-1-(2,2-diphenylethyl)-3-(3-guanidinopropyl)-2-oxo-1,4-diazepan-5-yl)methyl)-1-methoxy-2-naphthamide] and `COc1cc2ccccc2cc1C(=O)NC[C@@H]1CCN(CC(c2ccccc2)c2ccccc2)C(=O)[C@H](CCCNC(=N)N)N1` [Compound 163, N-(((3S,5S)-1-(2,2-diphenylethyl)-3-(3-guanidinopropyl)-2-oxo-1,4-diazepan-5-yl)methyl)-3-methoxy-2-naphthamide] cannot be ordered by IC50: less than 100 nM for the first, less than 1000 nM for the second.

`O=C(/C=C/c1ccc(Cl)cc1)NC[C@@H]1CCN(Cc2cc(Cl)cc(Cl)c2)C(=O)[C@H](CCN2CCCCC2)N1` [Compound 345, (E)-3-(4-chlorophenyl)-N-(((3S,5S)-1-(3,5-dichlorobenzyl)-2-oxo-3-(2-(piperidin-1-yl)ethyl)-1,4-diazepan-5-yl)methyl)acrylamide] and `O=C(/C=C/c1ccc(Cl)cc1)NC[C@@H]1CCN(CC(c2ccccc2)c2ccccc2)C(=O)[C@H](CN2CCCCC2)N1` [Compound 279, (E)-3-(4-chlorophenyl)-N-(((3S,5S)-1-(2,2-diphenylethyl)-2-oxo-3-(piperidin-1-ylmethyl)-1,4-diazepan-5-yl)methyl)acrylamide] cannot be ordered by IC50: less than 10 nM for the first, less than 10 nM for the second.

`NCCC[C@@H]1N[C@H](CNC(=O)/C=C/c2ccc(F)cc2F)CCN(CC(c2ccccc2)c2ccccc2)C1=O` [Compound 233, (E)-N-(((3S,5S)-3-(3-aminopropyl)-1-(2,2-diphenylethyl)-2-oxo-1,4-diazepan-5-yl)methyl)-3-(2,4-difluorophenyl)acrylamide] and `NCCC[C@@H]1N[C@H](CNC(=O)/C=C/c2ccc(F)cc2)CCN(CC(c2ccccc2)c2ccccc2)C1=O` [Compound 220, (E)-N-(((3S,5S)-3-(3-aminopropyl)-1-(2,2-diphenylethyl)-2-oxo-1,4-diazepan-5-yl)methyl)-3-(4-fluorophenyl)acrylamide] cannot be ordered by IC50: less than 100 nM for the first, less than 100 nM for the second.

`NCC[C@@H]1N[C@H](CNC(=O)/C=C/c2ccc(Cl)cc2)CCN(CC(c2ccccc2)c2ccccc2)C1=O` [Compound 283, (E)-N-(((3S,5S)-3-(2-aminoethyl)-1-(2,2-diphenylethyl)-2-oxo-1,4-diazepan-5-yl)methyl)-3-(4-chlorophenyl)acrylamide] and `NC[C@@H]1N[C@H](CNC(=O)/C=C/c2ccc(Cl)cc2)CCN(CC(c2ccccc2)c2ccccc2)C1=O` [Compound 275, (E)-N-(((3S,5S)-3-(aminomethyl)-1-(2,2-diphenylethyl)-2-oxo-1,4-diazepan-5-yl)methyl)-3-(4-chlorophenyl)acrylamide] cannot be ordered by IC50: less than 100 nM for the first, less than 100 nM for the second.

`N=C(N)NCCC[C@@H]1N[C@H](CNC(=O)/C=C/c2cccs2)CCN(CC(c2ccccc2)c2ccccc2)C1=O` [Compound 167, (E)-N-(((3S,5S)-1-(2,2-diphenylethyl)-3-(3-guanidinopropyl)-2-oxo-1,4-diazepan-5-yl)methyl)-3-(thiophen-2-yl)acrylamide] and `N=C(N)NCCC[C@@H]1N[C@H](CNC(=O)/C=C/c2cccc(O)c2)CCN(CC(c2ccccc2)c2ccccc2)C1=O` [Compound 193, (E)-N-(((3S,5S)-1-(2,2-diphenylethyl)-3-(3-guanidinopropyl)-2-oxo-1,4-diazepan-5-yl)methyl)-3-(3-hydroxyphenyl)acrylamide] cannot be ordered by IC50: less than 100 nM for the first, less than 1000 nM for the second.

`CN1[C@H](CNC(=O)/C=C/c2ccc(F)cc2)CCN(CC(c2ccccc2)c2ccccc2)C(=O)[C@@H]1CCCN` [Compound 258, (E)-N-(((3S,5S)-3-(3-aminopropyl)-1-(2,2-diphenylethyl)-4-methyl-2-oxo-1,4-diazepan-5-yl)methyl)-3-(4-fluorophenyl)acrylamide] and `Cc1ccc(/C=C/C(=O)NC[C@@H]2CCN(CC(c3ccccc3)c3ccccc3)C(=O)[C@H](CCN)N2)cc1` [Compound 277, (E)-N-(((3S,5S)-3-(2-aminoethyl)-1-(2,2-diphenylethyl)-2-oxo-1,4-diazepan-5-yl)methyl)-3-p-tolylacrylamide] cannot be ordered by IC50: less than 1000 nM for the first, less than 100 nM for the second.

`N=C(N)NCCC[C@@H]1N[C@H](CNC(=O)/C=C/c2ccccc2C(F)(F)F)CCN(CC(c2ccccc2)c2ccccc2)C1=O` [Compound 172, (E)-N-(((3S,5S)-1-(2,2-diphenylethyl)-3-(3-guanidinopropyl)-2-oxo-1,4-diazepan-5-yl)methyl)-3-(2-(trifluoromethyl)phenyl)acrylamide] and `N=C(N)NCCC[C@@H]1N[C@H](CNC(=O)c2ccc3cc(Br)ccc3c2)CCN(CC(c2ccccc2)c2ccccc2)C1=O` [Compound 181, 6-bromo-N-(((3S,5S)-1-(2,2-diphenylethyl)-3-(3-guanidinopropyl)-2-oxo-1,4-diazepan-5-yl)methyl)-2-naphthamide] cannot be ordered by IC50: less than 1000 nM for the first, less than 10 nM for the second.

`NCCCC[C@@H]1N[C@H](CNC(=O)Cc2ccc3ccccc3c2)CCN(Cc2ccc3ccccc3c2)C1=O` [Compound 123, N-(((3S,5S)-3-(4-aminobutyl)-1-(naphthalen-2-ylmethyl)-2-oxo-1,4-diazepan-5-yl)methyl)-2-(naphthalen-2-yl)acetamide] and `NCCCC[C@@H]1N[C@H](CNC(=O)Cc2cccc3ccccc23)CCN(Cc2ccc3ccccc3c2)C1=O` [Compound 125, N-(((3S,5S)-3-(4-aminobutyl)-1-(naphthalen-2-ylmethyl)-2-oxo-1,4-diazepan-5-yl)methyl)-2-(naphthalen-1-yl)acetamide] cannot be ordered by IC50: less than 10000 nM for the first, less than 10000 nM for the second.

`N=C(N)NCCC[C@@H]1N[C@H](CNC(=O)CC2CCCCC2)CCN(CC(c2ccccc2)c2ccccc2)C1=O` [Compound 147, 2-cyclohexyl-N-(((3S,5S)-1-(2,2-diphenylethyl)-3-(3-guanidinopropyl)-2-oxo-1,4-diazepan-5-yl)methyl)acetamide] and `N=C(N)NCCC[C@@H]1N[C@H](CNC(=O)C23CC4CC(CC(C4)C2)C3)CCN(CC(c2ccccc2)c2ccccc2)C1=O` [Compound 161, N-(((3S,5S)-1-(2,2-diphenylethyl)-3-(3-guanidinopropyl)-2-oxo-1,4-diazepan-5-yl)methyl)-adamantane-1-carboxamide] cannot be ordered by IC50: less than 1000 nM for the first, less than 10000 nM for the second.

`N=C(N)NCCC[C@@H]1N[C@H](CNS(=O)(=O)c2ccc3ccccc3c2)CCN(CC(c2ccccc2)c2ccccc2)C1=O` [Compound 50, N-(((3S,5S)-1-(2,2-diphenylethyl)-3-(3-guanidinopropyl)-2-oxo-1,4-diazepan-5-yl)methyl)-2-naphthalene-2-sulfonamide] gave an IC50 of less than 10000 nM.

Same assay, conditions: hMC5R binding assay as in Example 102; compounds tested as trifluoroacetate or hydrochloride salts, or as free base

`CC[C@H](CN1CC[C@H](CNC(=O)c2ccc3cc(Cl)ccc3c2)N[C@H](CC(C)(C)N)C1=O)c1ccccc1` [Compound 494, N-(((3R,5R)-3-(2-amino-2-methylpropyl)-2-oxo-1-((S)-2-phenylbutyl)-1,4-diazepan-5-yl)methyl)-6-chloro-2-naphthamide] and `CC[C@H](CN1CC[C@@H](CNC(=O)c2ccc3cc(Cl)ccc3c2)N[C@@H](CCN2CCCCC2)C1=O)c1ccccc1` [Compound 569, 6-chloro-N-(([5-^13C,4-^15N](3S,5S)-2-oxo-1-((S)-2-phenylbutyl)-3-(2-(piperidin-1-yl)ethyl)-1,4-diazepan-5-yl)[^13C]methyl)-2-naphthamide] cannot be ordered by IC50: less than 10000 nM for the first, less than 10 nM for the second.
